The numbers were not newly measured in patent US8685965B2, “CGRP receptor antagonists” (Merck Sharp & Dohme Corp., priority 2008, dated 2014), which cites them from elsewhere.

The test system of series [1] is acute attacks of migraine. To be noted: clinical trials; Olesen et al. 2004.
The subject of series [2] is headache induced by CGRP infusion. To be noted: control group; Petersen et al. 2005.
The test system of series [3] is facial blood flow. To be noted: marmoset; Doods et al. 2000.
Series [4] has as its system middle meningeal artery. To be noted: rats, prior administration; Williamson et al. 1997.
Series [5] concerns facial blood flow. The note with it: rat; Escott et al. 1995.

Ends that are not written are not given here.

Consider `NCCCC[C@H](NC(=O)[C@@H](Cc1cc(Br)c(O)c(Br)c1)NC(=O)N1CCC(N2Cc3ccccc3NC2=O)CC1)C(=O)N1CCN(c2ccncc2)CC1` [BIBN4096BS], for which the “efficacy in treating acute attacks of migraine” value in series [1] was “effective in treating acute attacks of migraine”. In addition, the “prevention of headache induced by CGRP infusion” value in series [2] is reported as “able to prevent headache induced by CGRP infusion”. For the same compound, in series [3], the “effect on increase of facial blood flow after electrical stimulation of the trigeminal ganglion” value is recorded as “could be blocked”.

As to “CGRP(8-37): a peptide CGRP antagonist; fragment of CGRP that lacks seven N-terminal amino acid residues (VTHRLAGLLSRSGGVVKNNFVPTNVGSKAF; ends and bridges not checked; UniProt P06881 90-119, looked up, fragment)”, in series [4], the “effect on increase of middle meningeal artery diameter after electrical stimulation of the dura mater” value is “blocked”. For the same compound, the “effect on increase of facial blood flow after trigeminal ganglion stimulation” value in series [5] is “inhibited”.
